In patent US4965280A, “Antifungal carbinols” (E. I. Du Pont de Nemours and Company, priority 1989, dated 1990):
Converted amounts (≈) assume the structure as drawn. Read-outs that look alike come from different tables or passages of the source.

Tests used:
[1] = system: Venturia inaequalis; test: Example A apple scab; assay type: in vivo; details: read-out: disease control rating, Ex. A
How it was run: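 Acetone solution (6% of final vol.) → suspension at 100 or 20 ppm in water + 250 ppm TREM 014 surfactant; sprayed to run-off on apple seedlings.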

[2] = system: Cercosporidium personatum; test: Example B Peanut Late Leafspot; assay type: in vivo; details: Nothopassalora personata, read-out: disease control rating, Ex. B
How it was run: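 Foliar spray on peanut seedlings, to run-off; test rates 100 or 20 ppm. Formulation: acetone at 6% of final volume, water with 250 ppm polyhydric alcohol ester surfactant.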

[3] = system: Botrytis cinerea; test: Example C bean grey mold; assay type: in vivo; details: Botrytis cinerea, 24 h, read-out: disease control rating, Ex. C
How it was run: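 Broad bean seedlings; foliar spray to run-off. Cmpd 100 or 20 ppm in water + 250 ppm TREM 014, acetone 6% v/v final.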

[4] = system: Erysiphe graminis f. sp. tritici; test: Example D wheat powdery mildew; assay type: in vivo; details: Blumeria graminis, 144 h, read-out: disease control rating, Ex. D
How it was run: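 Spray to run-off on wheat seedlings; test suspension 100 or 20 ppm compound, acetone 6% v/v, 250 ppm polyhydric alcohol ester surfactant in water.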

[5] = system: Pyricularia oryzae; test: whole plant or invertebrate; assay type: in vivo; details: Pyricularia oryzae, 120 h; for pest or weed control at 100 ppm: read-out: disease control rating, Ex. E, 100 PPM
[6] = system: Puccinia recondita; test: Example G wheat leaf rust; assay type: in vivo; details: read-out: disease control rating, Ex. G
[7] = system: Phytophthora infestans; test: whole plant or invertebrate; assay type: in vivo; details: Phytophthora infestans, in Solanum lycopersicum, read-out: disease control rating, Ex. H, 100 PPM
[8] = system: Plasmorpara viticola; test: Example I grape downy mildew; assay type: in vivo; details: read-out: disease control rating, Ex. I
How it was run: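 First, each compound is taken up in acetone amounting to 6% of the final volume. It is then suspended in purified water containing 250 ppm of the polyhydric alcohol ester surfactant TREM 014, at 100 or 20 ppm. Finally, the suspension is sprayed onto grape seedlings until run-off.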

[9] = system: Pythium aphanadermatum; test: Example J cucumber damping off; assay type: in vivo; details: Pythium, 336 h; 5 kg/ha; read-out: disease control rating, Ex. J
How it was run: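 Seeds and soil were inoculated with a mix of sand, cereal and Pythium aphanadermatum mycelium, the fungus responsible for cucumber damping off. They were kept in a growth chamber at 30° C. for 14 days, and disease was then rated to assess control.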

[10] = system: Rhizoctonia solani; test: Example K cotton blight; assay type: in vivo; details: 336 h, 5 kg/ha, read-out: disease control rating, Ex. K
Procedure: […] Seeds and soil were then inoculated with a mixture of sand, cereal and mycelium of the fungus Rhizoctonia solani, causal agent of cotton blight, and incubated in a growth chamber at 30° C. for 14 days. Disease ratings were then made.

[11] = system: Fusarium oxysporum f. sp. cucumerinum; test: Example L cucumber wilt; assay type: in vivo; details: 336 h, 5 kg/ha, read-out: disease control rating, Ex. L
Procedure: […] Seeds and soil were then inoculated with a mixture of sand, cereal and mycelium of the fungus Fusarium oxysporum f. sp. cucumerinum, causal agent of cucumber wilt, and incubated in a growth chamber at 30° C. for 14 days. Disease ratings were then made.

[12] = system: Sclerotium rolfsii; test: Example M southern blight; assay type: in vivo; details: Agroathelia rolfsii, 336 h; 5 kg/ha; read-out: disease control rating, Ex. M
Procedure: […] Seeds and soil were then inoculated with a mixture of sand, cereal and mycelium of the fungus Sclerotium rolfsii, causal agent of sourthern blight, and incubated in a growth chamber at 30° C. for 14 days. Disease ratings were then made.

[13] = system: Rhizoctonia solani; test: Example F rice sheath blight; assay type: in vivo; details: Rhizoctonia solani, 144 h, read-out: disease control rating, Ex. F
How it was run: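 Spray to run-off on rice seedlings; test suspension 100 or 20 ppm compound in water + 250 ppm TREM 014 surfactant, acetone 6% final volume.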

[14] = system: Candida albicans ATCC 11651; test: In vitro antifungal MIC, microtiter broth dilution; details: Candida albicans, ATCC11651, 24 h, read-out: MIC values, C. albicans, 30°, 24 hours
[15] = system: Candida albicans ATCC 11651; test: In vivo systemic Candida infection in mice, primary assay; parameters: species or system Candida albicans; CF-1 female mice; details: Candida albicans, 150 mg/kg per day, read-out: % Survival
How it was run: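 CF-1 female mice (20 g, 10 per group) were infected IV with 0.2 ml of 1×10^7/ml C. albicans ATCC 11651, then given test compound subcutaneously at 50 or 150 mg/kg/day at 1 and 6 h post-infection and once daily for three more days. Survival was followed for 21 days against infected untreated mice; ≥70% protection at 14 days was scored active.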

[16] = system: Aspergillus fumigatus ATCC 28214; test: In vitro antifungal MIC, microtiter broth dilution; details: Aspergillus fumigatus, ATCC28214, 24 h, read-out: MIC values, A. fumigatus, 30°, 24 hours

| Compound | pest or weed control at 100 ppm [1] [%] | pest or weed control at 100 ppm [2] [%] | pest or weed control at 100 ppm [3] [%] | pest or weed control at 100 ppm [4] [%] | pest or weed control at 100 ppm [5] [%] | pest or weed control at 100 ppm [6] [%] | pest or weed control at 100 ppm [7] [%] | pest or weed control at 100 ppm [8] [%] | pest or weed control at 5000 g/ha [9] [%] | pest or weed control at 5000 g/ha [10] [%] | pest or weed control at 5000 g/ha [11] [%] | pest or weed control at 5000 g/ha [12] [%] | pest or weed control at 100 ppm [13] [%] | MIC [14] [µg/mL] | also measured |
| --- | --- | --- | --- | --- | --- | --- | --- | --- | --- | --- | --- | --- | --- | --- | --- |
| N#CCS(=O)(=O)c1ncnn1CC(O)(c1ccccc1F)C1(c2ccc(F)cc2)CO1 (stereo not drawn) [Example 1469] | 68 | 84 | 81 | 77 | 2 | 100 | 24 | 89 | 0 | 80 | 70 | 0 |  |  |  |
| C=C(CO)C(O)(Cn1cncn1)c1ccc(Cl)cc1 (stereo not drawn) [Example 447] |  | 0 | 24 | 46 | 46 | 30 | 0 | 24 | 0 | 0 | 0 | 0 | 0 | 3.2 (≈ 11.4 µM) |  |
| N#CC[S+]([O-])c1ncnn1CC(O)(c1ccccc1F)C1(c2ccc(F)cc2)CO1 (stereo not drawn) [Example 1468] | 40 | 0 | 0 | 77 | 2 | 93 | 0 | 46 | 0 | 60 | 0 | 0 |  |  |  |
| C=C(CO)C(O)(Cn1cncn1)c1ccc(Br)cc1 (stereo not drawn) [Example 451] | 16 | 100 | 72 | 0 | 0 | 0 | 0 | 0 | 0 | 0 | 0 | 0 | 0 | 12.5 (≈ 38.6 µM) |  |
| C=C(CO)C(O)(Cn1cncn1)c1ccc(F)cc1 (stereo not drawn) [Example 450] |  | 0 | 54 | 11 | 46 | 30 | 0 | 51 | 0 | 0 | 0 | 0 | 34 | > 100 |  |
| C=C(c1ccc(F)cc1)C(O)(Cn1cncn1)C(C)C (stereo not drawn) [Example 667] |  |  | 4 |  | 0 |  | 0 | 10 |  | 0 | 0 | 0 | 0 | 6.3 (≈ 22.9 µM) | responders at 150 mg/kg ([15]; ATCC11651, 168 h, day 7): 10%; responders at 150 mg/kg ([15]; ATCC11651, 336 h, day 14): 0%; responders at 150 mg/kg ([15]; ATCC11651, 504 h, day 21): 0%; pest or weed control at 20 ppm ([1]; 20 PPM): 13%; pest or weed control at 20 ppm ([2]; 20 PPM): 14%; pest or weed control at 20 ppm ([3]; 20 PPM): 7%; pest or weed control at 20 ppm ([4]; 20 PPM): 39%; pest or weed control at 20 ppm ([5]; read-out: disease control rating, Ex. E, 20 PPM): 0%; pest or weed control at 20 ppm ([13]; 20 PPM): 0%; pest or weed control at 20 ppm ([6]; 20 PPM): 0%; MIC [16]: 25 µg/mL (≈ 90.8 µM) |
| C=C(CO)C(O)(Cn1cncn1)c1ccc(Cl)cc1Cl (stereo not drawn) [Example 449] | 71 | 0 | 24 | 0 | 76 | 30 | 0 | 51 | 0 | 0 | 0 | 0 | 13 | ≤ 0.4 |  |
| C=C(CN(C)C)C(O)(Cn1cncn1)c1ccc(-c2ccccc2)cc1 (stereo not drawn) [Example 456] | 82 | 0 | 58 | 53 | 98 | 96 | 9 | 0 | 0 | 0 | 0 | 0 | 0 |  |  |
| C=C(c1ccccc1)C(O)(Cn1cncn1)c1ccc(Cl)s1 (stereo not drawn) [Example 618] | 100 | 100 | 98 | 89 | 0 | 100 | 0 | 0 | 0 | 80 | 80 |  |  |  |  |
| C=C(c1ccc(F)cc1)C(O)(Cn1cncn1)c1ccc(Cl)cc1Cl (stereo not drawn) [Example 2] | 62 | 100 | 93 | 98 | 95 | 100 | 0 | 99 | 0 |  | 0 |  | 100 | ≤ 0.4 | responders at 150 mg/kg ([15]; ATCC11651, 168 h, day 7): 100%; responders at 150 mg/kg ([15]; ATCC11651, 336 h, day 14): 100%; responders at 150 mg/kg ([15]; ATCC11651, 504 h, day 21): 80%; MIC [16]: 1.6 µg/mL (≈ 4.23 µM) |
